Data reported in patent publication US8604036B2, “Pyridazinone derivatives” (Merck Patent GmbH, priority 2008, dated 2013).

What was measured:
Met kinase [1] = target: T1, Met kinase (Homo sapiens, UniProt P08581); experiment: Met kinase inhibition (cell); assay type: cell-based
Target sequence in this assay (P08581 25-1390): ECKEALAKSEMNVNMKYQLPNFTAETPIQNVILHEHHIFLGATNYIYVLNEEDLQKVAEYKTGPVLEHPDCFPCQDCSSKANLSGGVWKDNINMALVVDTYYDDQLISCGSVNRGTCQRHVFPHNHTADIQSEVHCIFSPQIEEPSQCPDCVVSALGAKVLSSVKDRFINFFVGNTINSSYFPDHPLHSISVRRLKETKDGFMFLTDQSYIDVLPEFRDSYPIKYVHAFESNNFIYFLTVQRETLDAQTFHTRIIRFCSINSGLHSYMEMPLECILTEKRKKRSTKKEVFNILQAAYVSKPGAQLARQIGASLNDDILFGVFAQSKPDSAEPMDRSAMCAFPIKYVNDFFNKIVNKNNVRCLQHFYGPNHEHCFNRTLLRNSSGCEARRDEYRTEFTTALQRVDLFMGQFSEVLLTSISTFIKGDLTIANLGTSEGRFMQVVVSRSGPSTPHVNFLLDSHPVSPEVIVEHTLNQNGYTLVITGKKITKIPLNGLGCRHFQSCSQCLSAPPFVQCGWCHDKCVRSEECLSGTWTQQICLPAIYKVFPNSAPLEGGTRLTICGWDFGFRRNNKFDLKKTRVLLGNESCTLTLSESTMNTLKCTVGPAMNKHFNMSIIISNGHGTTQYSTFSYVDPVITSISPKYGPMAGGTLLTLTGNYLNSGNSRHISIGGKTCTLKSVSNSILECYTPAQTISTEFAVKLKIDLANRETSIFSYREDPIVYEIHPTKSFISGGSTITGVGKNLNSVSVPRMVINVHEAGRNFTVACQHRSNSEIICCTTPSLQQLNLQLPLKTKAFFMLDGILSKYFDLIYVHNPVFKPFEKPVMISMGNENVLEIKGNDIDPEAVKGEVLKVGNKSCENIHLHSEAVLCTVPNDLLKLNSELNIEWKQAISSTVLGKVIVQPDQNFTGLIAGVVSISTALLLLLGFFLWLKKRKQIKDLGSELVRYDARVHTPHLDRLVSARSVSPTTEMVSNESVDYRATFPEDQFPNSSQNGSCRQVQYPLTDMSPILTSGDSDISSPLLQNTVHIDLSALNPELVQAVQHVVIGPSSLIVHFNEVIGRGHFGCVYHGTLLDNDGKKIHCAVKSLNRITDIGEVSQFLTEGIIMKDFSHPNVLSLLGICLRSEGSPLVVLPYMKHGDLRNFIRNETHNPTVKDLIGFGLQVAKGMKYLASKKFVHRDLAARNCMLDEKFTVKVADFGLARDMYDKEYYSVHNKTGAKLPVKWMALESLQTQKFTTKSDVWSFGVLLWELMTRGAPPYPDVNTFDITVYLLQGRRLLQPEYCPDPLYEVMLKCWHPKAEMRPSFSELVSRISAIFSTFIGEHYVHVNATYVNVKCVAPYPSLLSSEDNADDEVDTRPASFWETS

Met kinase [2] = target: T1, Met kinase; experiment: Met kinase inhibition, flashplate method (enzyme); assay type: biochemical; design: 6His (N); purchased Upstate 14-526; host or cells: Sf21 insect cells (S. frugiperda), baculovirus
Source text: Measurement of Met Kinase Activity
According to the manufacturer's data (Met, active, upstate, catalogue No. 14-526), Met kinase is expressed for the purposes of protein production in insect cells (Sf21; S. frugiperda) and subsequent affinity-chromatographic purification as “N-terminal 6His-tagged” recombinant human protein in a baculovirus expression vector.
Flashplate Method (Met Kinase)
The test plates used are 96-well Flashplate® microtitre plates from Perkin Elmer (Cat. No. SMP200). The components of the kinase reaction described below are pipetted into the assay plate. The Met kinase and the substrate poly Ala-Glu-Lys-Tyr, (pAGLT, 6:2:5:1), are incubated for 3 hrs at room temperature with radioactively labelled ^33P-ATP in the presence and absence of test substances in a total volume of 100 μl. The reaction is terminated using 150 μl of a 60 mM EDTA solution. After incubation for a further 30 min at room temperature, the supernatants are filtered off with suction, and the wells are washed three times with 200 μl of 0.9% NaCl solution each time. The measurement of the bound radioactivity is carried out by means of a scintillation measuring instrument (Topcount NXT, Perkin-Elmer).
The full value used is the inhibitor-free kinase reaction. This should be approximately in the range 6000-9000 cpm. […] The inhibitory values (IC50) are determined using the RS1_MTS program. […]
Target sequence in this assay (P08581 974-1390 limits assumed): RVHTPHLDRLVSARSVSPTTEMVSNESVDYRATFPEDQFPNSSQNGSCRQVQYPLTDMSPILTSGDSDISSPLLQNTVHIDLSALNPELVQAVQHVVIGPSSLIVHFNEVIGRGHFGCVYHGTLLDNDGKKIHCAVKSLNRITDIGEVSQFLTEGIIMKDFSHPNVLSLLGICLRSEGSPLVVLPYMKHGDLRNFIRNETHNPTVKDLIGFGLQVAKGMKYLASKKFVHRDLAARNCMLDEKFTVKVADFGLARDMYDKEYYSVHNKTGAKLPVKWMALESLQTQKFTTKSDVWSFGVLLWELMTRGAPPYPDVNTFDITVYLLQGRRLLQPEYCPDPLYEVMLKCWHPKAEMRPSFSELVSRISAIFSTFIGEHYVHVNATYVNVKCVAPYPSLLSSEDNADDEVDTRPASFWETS

SMILES	IC50 (Met kinase [1]) [nM]	IC50 (Met kinase [2]) [nM]
N#Cc1cccc(-c2ccc(=O)n(Cc3cccc(-c4ncc(-c5cnn(CCN6CCCC6)c5)cn4)n3)n2)c1 [Compound A2, 3-[6-oxo-1-(6-{5-[1-(2-pyrrolidin-1-ylethyl)-1H-pyrazol-4-yl]pyrimidin-2-yl}pyridin-2-ylmethyl)-1,6-dihydropyridazin-3-yl]benzonitrile]	10 to 1000	–
Cc1ccc(-c2cccc(Cn3nc(-c4cc(F)cc(F)c4)ccc3=O)n2)nc1 [Compound A1, 6-(3,5-difluorophenyl)-2-(5′-methyl-[2,2′]bipyridinyl-6-ylmethyl)-2H-pyridazin-3-one]	1000 to 10000	10 to 1000
